Results on 19 molecules are retold here after patent US7514432B2, “Compounds and methods of treating cell proliferative diseases, retinopathies and arthritis” (Exonhit Therapeutics SA, priority 2003, dated 2009).

As a reminder, the IC50 is the midpoint of a concentration-inhibition curve.

In one test the test system is HMEC1. Description: Cell viability assay (MTT), HMEC1. Format: cell-based, Human. The following applies: 10% FBS; for IC50: MTT, 6-day treatment, 1% DMSO. How it is done: (§1) Table 12: 6-day cell viability assay (MTT) in the presence of 10% Fetal Bovine Serum and 1% DMSO, in HMEC1, HCT116, MDA-MB-231, MCF7 and NIH3T3 cell lines. 3 10^3 to 15 10^3 cells were seeded in 48-well plates in growth medium containing 10% FBS, with or without various concentrations of test compounds. Cell cultures were fed every 3 days with the appropriate media. Cell viability was determined on day 6. Data were analyzed and IC50s were calculated from dose-response curves using GraphPad Prism. Results summarized in the tables are mean±SEM of 1 to 8 independent experiments.
(§2) In order to determine a compound's effect on cell viability, microculture tetrazolium assays (MTT) were performed as described by Carmichael et al. (1996) with modifications. Four human tumoral cell lines, namely HCT116 colon adenocarcinoma, H460 lung carcinoma, MCF-7 and MDA-MB-231 breast carcinoma cell lines, DLD1 colorectal adenocarcinoma, HeLa adenocarcinoma, HepG2 hepatocellular carcinoma. 3 immortalized but non tumorigenic cell lines, namely NIH3T3 mouse fibroblasts (American Type Culture Collection) and primary hepatocytes (Biopredic international), cultured according to their recommendations together with Human Microvasculature Endothelial Cell line HMEC1 (National Center for Infectious Diseases). Briefly, cells were seeded in 48-well plates 24 hours before drug addition. Cells were treated with 0 to 200 μM (11 concentrations) of compound solubilized in DMSO, adjusting the final concentration of DMSO to 1% in the well. 16 hours, and three or six days after treatment, 0.5 mg/ml MTT (Sigma) was added to the medium and cells were incubated for 1-5 hours at 37° C. before solubilization of formazan crystals in 100% DMSO. Absorbance was measured using a spectrophotometer at a wavelength of 550 nm. Data was analyzed using the GraphPad Prism software (GraphPad Software, Inc.), and IC50 (dose leading to 50% cell death) was calculated from the dose-response curves.

The test system of another test is HCT116. Description: Cell viability assay (MTT), HCT116. It counts as cell-based, human. The following applies: 6-day treatment, 1% DMSO. How it is done: as §1
(§3) Table 13: 6-day cell viability assay (MTT) in the presence of 0.5% Fetal Bovine Serum and 1% DMSO, in HCT116 and MDA-MB-231 cell lines. 7.5 10^4 to 15 10^4 cells were seeded in 48-well plates in growth medium containing 10% FBS, with or without various concentrations of test compounds. Cell cultures were fed every 3 days with the appropriate media. Cell viability was determined on day 6. Data were analyzed and IC50s were calculated from dose-response curves using GraphPad Prism. Results summarized in the tables are mean±SEM of 1 to 2 independent experiments.
(§4) Table 14: 3-day cell viability assay (MTT) in the presence of 10% Fetal Bovine Serum and 1% DMSO, in DLD1, HCT116, MDA-MB-231, MCF7 and HeLa cells. 7.5 10^3 to 1.5 10^4 cells were seeded in 48-well plates in growth medium containing 10% FBS, with or without various concentrations of test compounds. Data were analyzed and IC50s were calculated from dose-response curves using GraphPad Prism. Results summarized in the tables are mean±SEM of 1 to 7 independent experiments.
(§5) Table 15: 16-hour cell viability assay (MTT) in the presence of 10% Fetal Bovine Serum and 1% DMSO, in HCT116, MDA-MB-231, NIH3T3, HepG2 and primary hepatocytes. 5 10^4 to 10 10^4 cells were seeded in 48-well plates in growth medium containing 10% FBS, with or without various concentrations of test compounds. Data were analyzed and IC50s were calculated from dose-reponse curves using GraphPad Prism. Results summarized in the tables are mean±SEM of 1 to 2 independent experiments.
as §2

The subject of another test is NIH 3T3. Description: Cell viability assay (MTT), NIH 3T3. Format: cell-based, mouse. The following applies: Mus musculus, NIH3T3, 144 h, 10% FBS, 6-day treatment, 1% DMSO. How it is done: as §1, §5, §2
The subject of the next test is MDA-MB-231. Description: Cell viability assay (MTT), MDA-MB-231. It counts as cell-based, human. The following applies: 10% FBS, 1% DMSO. How it is done:
as §1, §3, §4, §5, §2

[1] abbreviates: Homo sapiens, HCT-116, 144 h, 10% FBS.
Where [2] appears, read: 6-day treatment, read-out: IC50 μM, MDA-MB-231.
[3] abbreviates: Homo sapiens, MDA-MB-231, 144 h, 6-day treatment, read-out: IC50 μM, MDA-MB-231.

Structures are written as SMILES. Like-named read-outs stand apart in the source and are kept apart here.

On to `Cc1cc(OCCCCCOc2coc(COC3CCCCO3)cc2=O)c2cc(F)ccc2n1` (centres unmarked) [EHT 1593, 5-[5-(6-Fluoro-2-methyl-quinolin-4-yloxy)-pentyloxy]-2-(tetrahydro-pyran-2-yloxymethyl)-4H-pyran-4-one], for which the half-inhibitory concentration (IC50) in the test on HMEC1 (Homo sapiens, HMEC-1, 144 h) is 13.2 µM; with HCT116 (10% FBS), 2.4 µM; in the test with HCT116 (setting [1]), less than 4 µM; with NIH 3T3, 21.5 µM.

As to `O=c1cc(COC2CCCCO2)occ1OCCCCCOc1ccnc2cc(C(F)(F)F)ccc12` (centres unmarked) [EHT 3788, 2-(Tetrahydro-pyran-2-yloxymethyl)-5-[5-(7-trifluoromethyl-quinolin-4-yloxy)-pentyloxy]-pyran-4-one], the concentration for half-maximal inhibition (IC50) with HMEC1 (Homo sapiens, HMEC-1, 144 h) was less than 10 µM; with HMEC1, 7.1 µM; in the test on HCT116 (10% FBS), 2.1 µM; with HCT116 (setting [1]), less than 4 µM; with NIH 3T3, 8.8 µM.

In the case of `CC(C)(C)C(=O)N1CCN(Cc2cc(=O)c(OCCCCCSc3ccnc4cc(C(F)(F)F)ccc34)co2)CC1` [EHT 0785, 5-(5-(7-(Trifluoromethyl)quinolin-4-ylthio)pentyloxy)-2-((4-(pivaloyl)piperazin-1-yl)methyl)-4H-pyran-4-one], the IC50 in the test with HMEC1 (Homo sapiens, HMEC-1, 144 h) is less than 10 µM; in the test on HMEC1, 9.6 µM; in the test with MDA-MB-231 (setting [2]), 8.2 µM; in the test with MDA-MB-231 (setting [3]) it was less than 9 µM; in the test with NIH 3T3, 11.6 µM. Besides, in the test with HMEC1 (MTT 6 days, compounds most active in HCT116), the “difference of activity in HMEC1 cells as compared to HCT116 cells” value worked out at 5 fold.

Turning to `CC(C)(C)NC(=O)N1CCN(Cc2cc(=O)c(OCCCCCSc3ccnc4cc(C(F)(F)F)ccc34)co2)CC1` [EHT 3664, 4-((5-(5-(7-(Trifluoromethyl)quinolin-4-ylthio)pentyloxy)-4-oxo-4H-pyran-2-yl)methyl)-N-tert-butylpiperazine-1-carboxamide], the 50% inhibitory concentration (IC50) in the test with HMEC1 (Homo sapiens, HMEC-1, 144 h) was less than 10 µM; in the test on HMEC1, 10 µM; in the test on MDA-MB-231 (setting [2]) it was 6.3 µM; in the test with MDA-MB-231 (setting [3]), less than 9 µM; in the test with NIH 3T3 it was 9.8 µM.

For the molecule `O=c1cc(CN2CCSCC2)occ1OCCCCCSc1ccnc2cc(C(F)(F)F)ccc12` [EHT 5430, 5-(5-(7-(Trifluoromethyl)quinolin-4-ylthio)pentyloxy)-2-(thiomorpholino-methyl)-4H-pyran-4-one], the concentration for half-maximal inhibition (IC50) was 20.1 µM in the test on HMEC1 (Homo sapiens, HMEC-1, 144 h); 2.1 µM in the test on HCT116 (10% FBS); less than 4 µM in the test on HCT116 (setting [1]).

Turning to `O=c1cc(COC2CCCCO2)occ1OCCCCCOc1cccc2ccsc12` (centres unmarked) [EHT 6060, 5-[5-(Benzo[b]thiophen-7-yloxy)-pentyloxy]-2-(tetrahydro-pyran-2-yloxymethyl)-4H-pyran-4-one], the IC50 in the test on HMEC1 (Homo sapiens, HMEC-1, 144 h) was 19.1 µM; in the test with HCT116 (10% FBS) it was 2 µM; with HCT116 (setting [1]), less than 4 µM.

With `O=c1cc(COC2CCCCO2)occ1OCCCCCCCSc1ccnc2cc(C(F)(F)F)ccc12` (centres unmarked) [EHT 8883, 5-(7-(7-(Trifluoromethyl)quinolin-4-ylthio)heptyloxy)-2-((tetrahydro-2H-pyran-2-yloxy)methyl)-4H-pyran-4-one], the 50% inhibitory concentration (IC50) is less than 10 µM in the test on HMEC1 (Homo sapiens, HMEC-1, 144 h) and 8 µM in the test on HMEC1.

`O=c1cc(CN2CCOCC2)occ1OCCCCCOc1ccnc2ccc(C(F)(F)F)cc12` [EHT 1426, 5-(5-(6-(Trifluoromethyl)quinolin-4-yloxy)pentyloxy)-2-(morpholinomethyl)-4H-pyran-4-one] returned an IC50 in the test with HCT116 (setting [1]) of 18 µM.

Consider `CC(=O)O[C@H]1C(=O)[C@@]2(C)[C@H]([C@H](OC(=O)c3ccccc3)[C@]3(O)C[C@H](OC(=O)[C@H](O)[C@@H](NC(=O)c4ccccc4)c4ccccc4)C(C)=C1C3(C)C)[C@]1(OC(C)=O)CO[C@@H]1C[C@@H]2O` [Taxol, Paclitaxel, reference compound], for which the concentration for half-maximal inhibition (IC50) is 0.0029 µM with HMEC1 (Homo sapiens, HMEC-1, 144 h); 0.0055 µM with HCT116 (setting [1]); 4.25e-06 µM in the test on MDA-MB-231 (Homo sapiens, MDA-MB-231, 72 h, 3-day treatment, read-out: IC50, MDA-MB-231 (row labelled Taxol (nM))); 0.0036 µM in the test with MDA-MB-231 (setting [3]); roughly 0.05 µM with NIH 3T3.

On to `CCOC(=O)c1cnc2cc(C(F)(F)F)ccc2c1OCCCCCOc1coc(CN2CCN(C)CC2)cc1=O` [EHT 8791, 4-[5-(6-(4-Methyl-piperazin-1-ylmethyl)-4-oxo-4H-pyran-3-yloxy)-pentyloxy]-7-trifluoromethyl-quinoline-3-carboxylic acid ethyl ester], for which the concentration for half-maximal inhibition (IC50) was roughly 200 µM with HMEC1 (Homo sapiens, HMEC-1, 144 h) and roughly 200 µM in the test on HCT116 (setting [1]).

Consider `O=c1cc(CN2CCOCC2)occ1OCCCCCOc1ccnc2cc(C(F)(F)F)ccc12` [EHT 3411, 5-(5-(7-(Trifluoromethyl)quinolin-4-yloxy)pentyloxy)-2-(morpholinomethyl)-4H-pyran-4-one], for which the half-inhibitory concentration (IC50) with HMEC1 (Homo sapiens, HMEC-1, 144 h) was 62.4 µM; in the test on HCT116 (setting [1]), 14.1 µM.

For `CCCc1ccc2cccnc2c1OCCCCCOc1coc(COC2CCCCO2)cc1=O` (centres unmarked) [EHT 5810, 5-[5-(7-Propyl-quinolin-8-yloxy)-pentyloxy]-2-(tetrahydro-pyran-2-yloxymethyl)-4H-pyran-4-one], the 50% inhibitory concentration (IC50) worked out at 15.1 µM with HMEC1 (Homo sapiens, HMEC-1, 144 h) and 8.4 µM with HCT116 (setting [1]).

As to `CC(C)(C)OC(=O)N1CCN(Cc2cc(=O)c(OCCCCCSc3ccnc4cc(C(F)(F)F)ccc34)co2)CC1` [EHT 9358, tert-Butyl 4-((5-(5-(7-(trifluoromethyl)quinolin-4-ylthio)pentyloxy)-4-oxo-4H-pyran-2-yl)methyl)piperazine-1-carboxylate], the half-maximal inhibitory concentration (IC50) in the test on HMEC1 (Homo sapiens, HMEC-1, 144 h) was 18.4 µM; in the test with HCT116 (Homo sapiens, HCT-116, 144 h, 0.5% FBS), 1 µM; in the test with NIH 3T3 it was 7.7 µM.

Regarding `CN1CCN(Cc2cc(=O)c(OCCCCCOc3ccnc4cc(C(F)(F)F)ccc34)co2)CC1` [EHT 0079, 5-(5-(7-(Trifluoromethyl)quinolin-4-yloxy)pentyloxy)-2-((4-methylpiperazin-1-yl)methyl)-4H-pyran-4-one], the IC50 with HMEC1 (Homo sapiens, HMEC-1, 144 h) worked out at 28.6 µM; in the test with HCT116 (setting [1]) it was 12.5 µM.

Regarding `O=c1cc(CN2CCOCC2)occ1OCCOCCSc1ccnc2cc(C(F)(F)F)ccc12` [EHT 0371, 5-(2-(2-(7-(Trifluoromethyl)quinolin-4-ylthio)ethoxy)ethoxy)-2-(morpholinomethyl)-4H-pyran-4-one], in the test with HMEC1 (Homo sapiens, HMEC-1, 144 h), half-maximal inhibition (IC50) required 88.7 µM.

`O=c1cc(CN2CCOCC2)occ1OCCCCCOc1ncnc2ccccc12` [EHT 3726, 5-(5-(Quinazolin-4-yloxy)pentyloxy)-2-(morpholinomethyl)-4H-pyran-4-one] came in with a half-inhibitory concentration (IC50) in the test with HCT116 (setting [1]) of roughly 200 µM.

In the case of `CN1CCN(Cc2cc(=O)c(OCCCCCOc3ccnc4c(C(F)(F)F)cccc34)co2)CC1` [EHT 5847, 5-(5-(8-(Trifluoromethyl)quinolin-4-yloxy)pentyloxy)-2-((4-methylpiperazin-1-yl)methyl)-4H-pyran-4-one], the half-maximal inhibitory concentration (IC50) in the test on HMEC1 (Homo sapiens, HMEC-1, 144 h) came to 31.6 µM; in the test on HCT116 (setting [1]), 6.1 µM.

For `CNC(=O)N1CCN(Cc2cc(=O)c(OCCCCCSc3ccnc4cc(C(F)(F)F)ccc34)co2)CC1` [EHT 4495, 4-((5-(5-(7-(Trifluoromethyl)quinolin-4-ylthio)pentyloxy)-4-oxo-4H-pyran-2-yl)methyl)-N-methylpiperazine-1-carboxamide], the half-maximal inhibitory concentration (IC50) in the test with HCT116 (10% FBS) is 2.3 µM; with HCT116 (setting [1]), less than 4 µM.

In the case of `O=c1cc(CN2CCOCC2)occ1OCCCCCOc1ccnc2c(C(F)(F)F)cccc12` [EHT 4687, 5-(5-(8-(Trifluoromethyl)quinolin-4-yloxy)pentyloxy)-2-(morpholinomethyl)-4H-pyran-4-one], the concentration for half-maximal inhibition (IC50) in the test with HMEC1 (Homo sapiens, HMEC-1, 144 h) worked out at 39.1 µM; in the test with HCT116 (setting [1]) it was 5.5 µM.
